Measurements from patent US8017629B2, “Compounds and uses thereof in modulating amyloid β” (Neurogenetic Pharmaceuticals, Inc., priority 2003, dated 2011).

Biological target: BACE Enzyme (Homo sapiens, UniProt P56817)
Assay: BACE Enzyme Potency (Table 12)
Assay type: biochemical
Conditions: Table 12; class symbols; read-out: BACE Enzyme Potency

Chain of BACE Enzyme (P56817 46-501, species assumed): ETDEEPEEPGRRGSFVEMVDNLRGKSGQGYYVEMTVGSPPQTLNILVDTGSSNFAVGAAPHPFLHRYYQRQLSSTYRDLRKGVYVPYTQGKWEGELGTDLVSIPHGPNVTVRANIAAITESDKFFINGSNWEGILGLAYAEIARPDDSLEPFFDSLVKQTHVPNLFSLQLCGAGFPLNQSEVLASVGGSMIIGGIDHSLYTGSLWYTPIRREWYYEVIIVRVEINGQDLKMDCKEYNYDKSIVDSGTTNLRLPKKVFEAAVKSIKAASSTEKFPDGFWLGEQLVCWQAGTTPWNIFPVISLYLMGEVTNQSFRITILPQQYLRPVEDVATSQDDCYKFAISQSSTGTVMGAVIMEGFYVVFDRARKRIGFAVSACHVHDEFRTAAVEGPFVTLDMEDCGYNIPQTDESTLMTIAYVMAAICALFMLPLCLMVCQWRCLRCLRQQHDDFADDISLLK

| SMILES | IC50 [µM] |
| --- | --- |
| CCN(c1ccc(N2CCOCC2)cc1)c1nc(-c2ccc(-n3ccnc3)cc2)cs1 [Compound 381] | 5.1 to 10 |
| CCOC(=O)c1ccc(Nc2nc(-c3ccc(N4CCN(C)CC4)cc3)cs2)cc1 [Compound 382] | 0.2 to 1 |
